# Earlier results in patent US20170027976A1, “NOVEL ADEMETIONINE FORMULATIONS” (METHYLATION SCIENCES INTERNATIONAL SRL, priority 2014, published 2017).
# Conditions: background statement; large daily doses required
compound,measurement,value
"C[S+](CC[C@H](N)C(=O)[O-])C[C@H]1O[C@@H](n2cnc3c(N)ncnc32)[C@H](O)[C@@H]1O (stereo partly drawn) [ademetionine, S-adenosyl-L-methionine]",uptake of ademetionine,< 5%
